Assay results published in patent US9518041B2, “(+)-5-(3,4-difluorophenyl)-5-[(3-methyl-2-oxopyridin-1(2H)-yl)methyl]imidazolidine-2,4-dione and drug containing same” (KAKEN PHARMACEUTICAL CO., LTD., priority 2013, dated 2016).

Columns and labels:
[1] = biological target: T1, human MMP-14 (Homo sapiens, UniProt P50281); experiment: MMP-14 inhibition test; format: biochemical; conditions: read-out: Inhibitory activity (IC50, nM) MMP-14
T1 construct: purchased Calbiochem 475935
Procedure: (§1) MMP inhibition tests can be carried out, for example, using a fluorescent synthetic substrate based on the methods described in Bickett et al. (D. Mark Bickett et al., Anal. Biochem., 1993, 212, 58-64) and Nagase et al. (H. Nagase et al., J. Biol. Chem., 1994, 269, 20952-20957). The method for each MMP inhibition test is shown below.
(§2) 90 μL (1.9 ng) of human MMP-14 (Calbiochem #475935) prepared with an assay buffer A was added to 90 μL of a 20 μM fluorescent substrate (Dnp-Pro-Cha-Gly-Cys(Me)-His-Ala-Lys(Nma)-NH2) (SEQ ID NO: 2) prepared with an assay buffer B, and reacted at 37° C. for 5 hours. Enzyme activity was then determined by measuring with a fluorescence intensity meter (Labsystems, Fluoroskan Ascent) at an excitation wavelength of 355 nm and a measurement wavelength of 460 nm.
(§3) From the enzyme activity in the presence or the absence of the test substance, the inhibition rate was determined, and the 50% inhibitiory concentration (IC50) of the test substance was calculated.

[2] = Pharmacokinetic study after intravenous and percutaneous administration in hairless mice; format: in vivo; conditions: 1 w/v % Macrogol 400 solution, 50 μL/animal, occlusive
Procedure: Test substances (0.1 to 0.5 mg/5 mL/kg) were administered by bolus injection into the tail vein of hairless mice under anesthesia.
A 4 cm^2 administration site (2 cm×2 cm) was marked on the back skin of hairless mice under anesthesia (fed) using an oil-based marker. Test substances were applied to the administration site at 50 μL/animal (1 w/v % Macrogol 400 solution). Gauze (BEMCOT®) about 2 cm×2 cm in size was fixed using double-sided tape to an approximately 4 cm×4 cm polyethylene sheet, and the gauze face was placed over the face on which the test substance had been applied. An adhesive elastic bandage (Elastopore, about 10 cm) was stuck over the gauze to fix and protect the face on which the test substance had been applied. The mice were then returned to its cage. Twenty-four hours after administration, occlusive application was confirmed to have been properly carried out. […]
The cryopreserved plasma obtained by the above method was thawed at room temperature. After removing the protein using methanol, the concentration of the test substance in the plasma was measured. […]
Transdermal absorption rate was calculated using the following equation by calculating the AUC (area under the curve of the concentration in plasma) from the plasma concentration of the test substance measured by the method described above. […]

[3] = biological target: T2, human MMP-3 (Homo sapiens, UniProt P08254); experiment: MMP-3 inhibition test; format: biochemical; conditions: read-out: Inhibitory activity (IC50, nM) MMP-3
T2 construct: purchased Calbiochem 444217
Procedure: as §1
90 μL (1.5 ng) of human MMP-3 (Calbiochem #444217) prepared with an assay buffer A was added to 90 μL of a 20 μM fluorescent substrate NFF-3 (MOCAc((7-methoxycoumarin-4-yl)acetyl)-Arg-Pro-Lys-Pro-Val-Glu-Nva-Trp-Arg-Lys(Dnp)-NH2, Peptide Institute Inc., #3168-v) (SEQ ID NO: 4) prepared with an assay buffer B, and reacted at 37° C. for 4 hours. Enzyme activity was then determined by measuring with a fluorescence intensity meter (Labsystems, Fluoroskan Ascent) at an excitation wavelength of 320 nm and a measurement wavelength of 405 nm.
as §3

[4] = biological target: T3, human MMP-9 (Homo sapiens, UniProt P14780); experiment: MMP-9 inhibition test; format: biochemical; conditions: read-out: Inhibitory activity (IC50, nM) MMP-9
T3 construct: purchased Calbiochem 444231
Procedure: as §1
as §2, with “μL (11” for “μL (1.9”, “human MMP-9” for “human MMP-14”, “(Calbiochem #444231) was mixed with 10 μL of 10 mM APMA, and activated by reacting at 37° C. for 2 hours. 10 μL of the resultant enzyme solution was diluted to 90 μL” for “(Calbiochem #475935) prepared”, “buffer A. The mixture” for “buffer A”, “for 4” for “for 5”
as §3

[5] = biological target: T4, human MMP-17 (Homo sapiens, UniProt Q9ULZ9); experiment: MMP-17 inhibition test; format: biochemical; conditions: read-out: Inhibitory activity (IC50, nM) MMP-17
T4 sequence (Q9ULZ9 126-300 limits assumed): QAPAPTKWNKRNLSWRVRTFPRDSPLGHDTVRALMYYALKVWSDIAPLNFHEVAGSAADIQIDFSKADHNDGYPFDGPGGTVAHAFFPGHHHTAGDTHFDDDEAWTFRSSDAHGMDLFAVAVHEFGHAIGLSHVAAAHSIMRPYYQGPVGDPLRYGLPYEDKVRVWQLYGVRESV
Procedure: as §1
90 μL (5.8 ng) of human MMP-17 (Calbiochem #475940) prepared with an assay buffer A was added to 90 μL of a 20 μM fluorescent substrate (MOCAc-Pro-Leu-Gly-Leu-A2pr(Dnp)-Ala-Arg-NH2, Peptide Institute Inc., #3163-v) (SEQ ID NO: 3) prepared with an assay buffer B, and reacted at room temperature for 5 hours. Enzyme activity was then determined by measuring with a fluorescence intensity meter (Labsystems, Fluoroskan Ascent) at an excitation wavelength of 320 nm and a measurement wavelength of 405 nm.
From the enzyme activity in the presence or the absence of the test substance, the inhibition rate was determined, and the 50% inhibitory concentration (IC50) of the test substance was calculated.

T2 sequence (P08254 100-272 limits assumed): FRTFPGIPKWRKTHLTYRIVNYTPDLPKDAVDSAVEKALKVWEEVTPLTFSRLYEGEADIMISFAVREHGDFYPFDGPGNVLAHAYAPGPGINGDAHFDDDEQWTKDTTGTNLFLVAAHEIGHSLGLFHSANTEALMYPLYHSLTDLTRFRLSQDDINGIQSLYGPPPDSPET
T3 sequence (P14780 107-707 limits assumed): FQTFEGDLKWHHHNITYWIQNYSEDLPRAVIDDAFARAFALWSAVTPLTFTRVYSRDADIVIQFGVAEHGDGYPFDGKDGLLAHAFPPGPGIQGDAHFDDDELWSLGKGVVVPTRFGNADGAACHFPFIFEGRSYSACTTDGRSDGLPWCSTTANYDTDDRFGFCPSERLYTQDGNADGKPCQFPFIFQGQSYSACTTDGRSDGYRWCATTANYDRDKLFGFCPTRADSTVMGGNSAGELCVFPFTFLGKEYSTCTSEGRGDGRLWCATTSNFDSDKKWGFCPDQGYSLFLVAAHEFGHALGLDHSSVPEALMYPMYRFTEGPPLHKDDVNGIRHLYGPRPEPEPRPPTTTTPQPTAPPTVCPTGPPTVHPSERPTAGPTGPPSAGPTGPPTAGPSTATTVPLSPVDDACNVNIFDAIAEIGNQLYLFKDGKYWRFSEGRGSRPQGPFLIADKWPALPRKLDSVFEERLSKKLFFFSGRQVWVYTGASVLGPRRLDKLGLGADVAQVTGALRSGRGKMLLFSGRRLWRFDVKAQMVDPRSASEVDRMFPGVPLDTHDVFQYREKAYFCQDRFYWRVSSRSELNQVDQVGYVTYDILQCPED

For `Cc1cccn(CC2(c3ccc(F)c(F)c3)NC(=O)NC2=O)c1=O` (single isomer, unassigned; (+)) [(+)-5-(3,4-difluorophenyl)-5-[(3-methyl-2-oxopyridin-1(2H)-yl)methyl]imidazolidine-2,4-dione], the IC50 [1] was over 10000 nM, the “Transdermal absorbability after percutaneous administration” value [2] was “good transdermal absorbability” and the IC50 [3] was over 10000 nM. It also gave an IC50 [4] of over 10000 nM and an IC50 [5] of over 10000 nM.
